These results are taken from paper PMC8395737 (2021).

Each structure is given as a SMILES string.

Assay [1] has as its system TP3-T6 (DNA, G4) TGGGGTCCGAGGCGGGGCTTGGG
The experiment in a line: CD melting at 285 nm. The conditions noted are these: 70 mM KCl, 20 mM phosphate, pH 7.1, 2 µM DNA, 6 µM ligand.

The test system is the same in assay [2]. Nature of the assay: 1H NMR imino proton titration. The conditions noted are these: 70 mM KCl, 20 mM KH2PO4, pH 7.0, 25 °C, H2O/D2O 9:1, DMSO <7%.
Assay [3] has the same test system. Nature of the assay: ligand fluorescence titration, EQUISPEC multivariate fit. The note with it: 70 mM KCl, 20 mM potassium phosphate; 20 mM phosphate buffer, pH 7.1, 20 °C, 3 µM ligand.

For `NC(=O)n1ccc2ccc(-c3ccc(CN4CCCCC4)cc3)nc21`, in assay [1] (derived from two Tm (60.2 ± 1.0, 59.6 ± 0.8)), the ΔTm came out at 0.6 °C. Moreover, in assay [2] (R up to 2.0, 3'-end tetrad), the binding result is reported as “yes”. Besides, the Kb in assay [3] is listed as 5.45 ± 0.15 × 10^5 M^-1.

For `O=C(c1cc(Cc2n[nH]c(=O)c3ccccc23)ccc1F)N1CCN(C(=O)C2CC2)CC1`, the binding entry in assay [2] (up to R = 2.0, DNA 0.24–0.48 mM) is reported as “no”.

For the compound `NC(=O)c1cccc2cn(-c3ccc([C@@H]4CCCNC4)cc3)nc12`, the thermal shift (ΔTm) in assay [1] (derived from two Tm (60.3 ± 1.3, 59.6 ± 0.8)) is 0.7 °C. In addition, the binding entry in assay [2] (R up to 2.0, 3'-end tetrad) is on record as “yes”. In addition, in assay [3], the Kb is recorded as 5.24 ± 0.20 × 10^5 M^-1.

Consider `C[C@]1(c2nc3c(C(N)=O)cccc3[nH]2)CCCN1`, for which, in assay [1] (derived from two Tm (58.8 ± 1.3, 59.6 ± 0.8)), the ΔTm is -0.8 °C. Also, the binding entry in assay [2] (R up to 2.0, 5'-end tetrad slightly shifted) is recorded as “weak”. In addition, the Kb in assay [3] is reported as 5.48 ± 0.16 × 10^5 M^-1.
